Patent US10286000B2, “Retinoid X receptor-gamma agonists and retinoid X receptor-alpha antagonists for treatment of cancer” (St. Jude Children's Research Hospital, Inc., priority 2013, dated 2019)

Assays:
[1] = tested on: HCT116, HT29, and CAL27 cells; test: wound-healing assay; format: cell-based, human; conditions: HCT116, HT29, CAL27
Description: (§1) The number of cells that invaded the ECM was determined after 24 h. Data are expressed as percentage change in tumor invasion relative to that of DMSO-treated cells (n=3). (D) Wound healing by DMSO- and SPIR-treated HCT116, HT29, and CAL27 cells was compared. Data are calculated as the percentage change in distance of migration relative to that of DMSO-treated cells (n=3). […] Tumor xenografts and lung metastases were detected by bioluminescence imaging on day 25. Data are shown as the average total flux (photons/second)±standard deviation (n=8). (F) The lung metastases (arrows) were confirmed by examining lung tissue sections. * P≤0.05, ** P<0.01, *** P<0.005, **** P<0.0001.
Confluent cell layers of CAL27 and HT29 cells with a 500 μm±50 μm gap were formed by using Ibidi culture inserts (RPI Corp.). Gap distances were measured at various times using a Nikon Eclipse Ti inverted microscope and NIS-Elements software (Nikon).

[2] = tested on: NKG2DL (MICA-B, ULBP1-3) surface expression; test: flow cytometry of NKG2DL cell surface expression in cancer cell lines; format: cell-based, human
Description: Data are representative of five independent experiments. […] Controls were stained with APC-conjugated anti-human Fc antibody alone without preincubation with NKG2D-Fc. Data are representative of three independent experiments. […] Results are representative of two independent experiments. […] (E) NKG2DL mRNA expression in the colon cancer cell lines was analyzed by qRT-PCR analysis. Data are normalized to GAPDH mRNA levels and are presented as fold-change relative to the expression in DMSO-treated cells (n=5). (F) Lentiviral-based luciferase reporter construct containing the putative ULBP2 promoter (−2415 to 0 bp from the transcription start site: 73 bp upstream of ATG) was transduced into the colon cancer cell lines. Positively transduced cells were selected by puromycin treatment (2 μg/ml) for 2 weeks. […] Data shown are expressed as fold-change relative to the luciferase activity observed in DMSO-treated cells (n=3). * P<0.05, ** P<0.01.
Cell lines were stained with allophycocyanin-conjugated anti-MICA, anti-MICB, or anti-ULBP2 antibodies for 20 min at 4° C. For ULBP1 and ULBP3 staining, cells were first incubated with anti-ULBP1 and anti-ULBP3 antibodies and then with allophycocyanin-conjugated goat anti-mouse IgG antibody. To analyze total NKG2DL cell surface expression, cells were first incubated with human NKG2D-Fc for 20 min at 4° C. and then with allophycocyanin-conjugated mouse anti-human IgG (Fc) antibody. Cells were washed and analyzed on a C6 flow cytometer (Accuri). Data were analyzed using FlowJo software (TreeStar).

HDAC = HDAC activity and HDAC3 mRNA after SPIR treatment; format: cell-based, human
[3] = tested on: DNA damage in HCT116 cells; test: comet assay; format: cell-based, human
Description: Experiments were performed according to the manufacturer's instructions.

[4] = tested on: soluble ULBP2 from HCT116 cells; test: ULBP2 ELISA (shedding to culture supernatant); format: cell-based, human; conditions: 56 μM, 3 days
Description: ULBP2 shed from cell surface to the culture supernatant was detected by ELISA method as described before (Waldhauer & Steinle. 2006. Cancer research 66:2520-2526). 100 μl (triplicate) of cultured supernatant was added into a 96-well plate pre-coated with 1 μg/ml of mouse anti-ULBP2 (BUMO1) and incubated at 4° C. overnight. The plate was washed and then incubated with mouse anti-ULBP2 (IgG2a, 100 μl/well at 1 μg/ml) for 1 h followed by incubation with HRP-conjugated goat anti-mouse IgG2a for 1 h at room temperature. TMB substrate was added and the plate was read using Victor^2 plate reader (Perkin Elmer).

RXR-gamma = RXR-gamma reporter assay; format: cell-based, human; conditions: HCT116 cells
Description: The Cignal RXR reporter assay system containing an RXR-gamma-responsive luciferase construct, which encodes the firefly luciferase reporter gene under the control of a minimal CMV promoter and tandem repeats of the RXR-gamma transcriptional response element, was purchased from Qiagen. The experiment was performed in HCT116 cells according to the manufacturer's instructions.

HCT116 cells = test: cell-cycle analysis (propidium iodide, EdU); format: cell-based, human; conditions: HCT116, 24 h
[5] = tested on: HT29 xenografts, lung metastasis; test: lung metastasis model using HT29 cells; format: in vivo, NSG mice; conditions: i.p. twice a week for 3 weeks
Description: as §1
Luciferase-expressing HCT116 and HT29 cells were generated by lentiviral transduction of the cells with a CMV promoter-driven luciferase expression construct engineered from the pLL3.7 vector. […] Bioluminescence imaging was performed in a Xenogen imaging system to monitor tumor growth and the data were analyzed using Living Image software (Caliper LifeSciences). For the lung metastasis model using HT29 cells, lungs were harvested for bioluminescence imaging and then fixed in 10% neutral buffered formalin, paraffin embedded, sectioned, and stained with hematoxylin and eosin. A total of six lung sections at 100-μm intervals were collected for the observation of pulmonary nodules. […]

MMP-1 = MMP-1 activity in culture supernatant; format: cell-based, human; conditions: culture supernatant from HT29 and CAL27 cells

CC(=O)S[C@@H]1CC2=CC(=O)CC[C@]2(C)[C@H]2CC[C@@]3(C)[C@@H](CC[C@@]34CCC(=O)O4)[C@H]12 [SPIR, spironolactone]
cell migration [1]: delayed cell migration | ULBP2 expression ([2]; HCT116, HT29, SW480, HCT15, SPIR 56 μM, 3 days, dose-dependent): significantly increased | expression of other NK cell ligands (CD112, CD155, Fas, HLAs) ([2]; HCT116 cells, 56 μM, 3 days): no increase in expression | ULBP1 expression ([2]; SW480 and HCT15 cells): selective increase | MICA/B and ULBP3 expression ([2]; all SPIR-treated cells): enhancement | total NKG2DL expression by soluble NKG2D-Fc staining ([2]; colon cancer cell lines): Consistent NKG2DL upregulation | viability of the cells ([2]; colon cancer cell lines, SPIR treatment): without affecting the viability of the cells | HDAC activities (HDAC; SW480 or HCT116 cells): did not inhibit HDAC activities | mRNA expression of HDAC3 (HDAC; after SPIR treatment): no significant change | DNA breakage ([3]; HCT116, 56 μM for 24 h): moderate decrease in DNA breakage | genotoxicity ([3]; conclusion from comet assays): not genotoxic | amount of soluble ULBP2 [4]: did not reduce but rather moderately increased | RXR-gamma-responsive luciferase activity (RXR-gamma; 24 h): significantly increased | RXR-gamma protein level (RXR-gamma; Western blot): did not change | cell cycle (HCT116 cells): S-phase cell-cycle arrest | lung metastasis [5]: significant reduction of lung metastasis | MMP-1 activity (MMP-1): decrease of MMP-1 activity
